Measured values as given in patent US9499550B2 (BRISTOL-MYERS SQUIBB COMPANY, priority 2012, dated 2016).
Where two headings read alike, the source gives them in different places.

Legend:
[1] = tested on: HCV genotype 1b (Con1) replicon in HUH-7 cells; assay: HCV replicon luciferase reporter assay, genotype 1b; type: cell-based; settings: Hepatitis C virus, Huh-7, 72 h, 3 days incubation, read-out: LE_1b (EC50, range)
Procedure, shortened: (§1)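 Replicon inhibition for both genotypes was measured as Renilla luciferase signal (EnduRen, 7.5 μM final, 2 h) after 3-day, 37° C exposure of replicon-bearing HUH-7 cells in 4% FCS DMEM, 0.5% DMSO. The 1b construct carries S1179I; the 1a H77 construct carries P1496L and S2204I. Twenty-point, 3-fold dilutions were fitted four-parametrically for EC50, and CC50 was taken from multiplexed Cell Titer-Blue.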

[2] = tested on: HCV genotype 1a (H77 strain) replicon in HUH-7 cells; assay: HCV replicon luciferase reporter assay, genotype 1a; type: cell-based; settings: Hepatitis C virus, Huh-7, 72 h, 3 days incubation, read-out: LE_1a (EC50, range)
Procedure, shortened: as §1

[3] = HCV genotype 1b replicon luciferase assay, range class
[4] = HCV genotype 1a replicon luciferase assay, range class
[5] = HCV genotype 1b replicon luciferase
[6] = HCV genotype 1a replicon luciferase

`COCCOc1cnc(O[C@@H]2C[C@H]3C(=O)N[C@]4(C(=O)NS(=O)(=O)C5CC5)C[C@H]4/C=C\CC[C@@H](C)C[C@@H](C)[C@H](NC(=O)OC(C)(C)C(F)(F)F)C(=O)N3C2)c2ccc(OC)cc12` [Compound 1147, 1,1,1-trifluoro-2-methylpropan-2-yl((2R,6S,7R,9R,13aS,14aR,16aS,Z)-14a-((cyclopropylsulfonyl)carbamoyl)-2-((6-methoxy-4-(2-methoxyethoxyl)isoquinolin-1-yl)oxy)-7,9-dimethyl-5,16-dioxo-1,2,3,5,6,7,8,9,10,11,13a,14,14a,15,16,16a-hexadecahydrocyclopropa[e]pyrrolo[1,2-a][1,4]diazacyclopentadecin-6-yl)carbamate] was tested, and the EC50 [1, 3] was < 5.46 nM and the EC50 [2, 4] was < 5.46 nM.
With `CCOc1ccc2c(O[C@@H]3C[C@H]4C(=O)N[C@]5(C(=O)NS(=O)(=O)C6CC6)C[C@H]5/C=C\CC[C@@H](C)C[C@@H](C)[C@H](NC(=O)OC(C)(C)C)C(=O)N4C3)nccc2c1` [Compound 5128, tert-butyl ((2R,6S,7R,9R,13aS,14aR,16aS,Z)-14a-((cyclopropylsulfonyl)carbamoyl)-2-((6-ethoxyisoquinolin-1-yl)oxy)-7,9-dimethyl-5,16-dioxo-1,2,3,5,6,7,8,9,10,11,13a,14,14a,15,16,16a-hexadecahydrocyclopropa[e]pyrrolo[1,2-a][1,4]diazacyclopentadecin-6-yl)carbamate] the EC50 [1, 5] was < 5.46 nM and the EC50 [2, 6] was < 5.46 nM.
In the case of `CCOc1cnc(O[C@@H]2C[C@H]3C(=O)N[C@]4(C(=O)NS(=O)(=O)C5(C)CC5)C[C@H]4/C=C\CC[C@@H](C)C[C@@H](CC)[C@H](NC(=O)OC(C)(C)C)C(=O)N3C2)c2ccccc12` [Compound 4180, tert-butyl (2R,6S,7R,9R,13aS,14aR,16aS,Z)-2-(4-ethoxyisoquinolin-1-yloxy)-7-ethyl-9-methyl-14a-(1-methylcyclopropylsulfonylcarbamoyl)-5,16-dioxo-1,2,3,5,6,7,8,9,10,11,13a,14,14a,15,16,16a-hexadecahydrocyclopropa[e]pyrrolo[1,2-a][1,4]diazacyclopentadecin-6-ylcarbamate], the EC50 [1, 5] is reported as < 5.46 nM and the EC50 [2, 6] is reported as < 5.46 nM.
With `COc1ccc2c(O[C@@H]3C[C@H]4C(=O)N[C@]5(C(=O)NS(=O)(=O)C6(C)CC6)C[C@H]5/C=C\CC[C@H](C)C[C@@H](C)[C@H](NC(=O)OC(C)(C)C)C(=O)N4C3)nc(-c3ccc(OC(C)C)cc3)nc2c1` [Compound 3007, tert-butyl ((2R,6S,7R,9S,13aS,14aR,16aS,Z)-2-((2-(4-isopropoxyphenyl)-7-methoxyquinazolin-4-yl)oxy)-7,9-dimethyl-14a-(((1-methylcyclopropyl)sulfonyl)carbamoyl)-5,16-dioxo-1,2,3,5,6,7,8,9,10,11,13a,14,14a,15,16,16a-hexadecahydrocyclopropa[e]pyrrolo[1,2-a][1,4]diazacyclopentadecin-6-yl)carbamate] the EC50 [1, 3] was < 5.46 nM and the EC50 [2, 4] was < 5.46 nM.
In the case of `COc1cc2cc(-c3ccc(OC(C)C)cc3)nc(O[C@@H]3C[C@H]4C(=O)N[C@]5(C(=O)NS(=O)(=O)C6CC6)C[C@H]5/C=C\CC[C@H](C)C[C@@H](C)[C@H](NC(=O)OC(C)(C)C(F)(F)F)C(=O)N4C3)c2cc1F` [Compound 3189, 1,1,1-trifluoro-2-methylpropan-2-yl((2R,6S,7R,9S,13aS,14aR,16aS,Z)-14a-((cyclopropylsulfonyl)carbamoyl)-2-((7-fluoro-3-(4-isopropoxyphenyl)-6-methoxyisoquinolin-1-yl)oxy)-7,9-dimethyl-5,16-dioxo-1,2,3,5,6,7,8,9,10,11,13a,14,14a,15,16,16a-hexadecahydrocyclopropa[e]pyrrolo[1,2-a][1,4]diazacyclopentadecin-6-yl)carbamate], the EC50 [1, 5] is reported as < 5.46 nM and the EC50 [2, 6] is reported as 4.82 to 103 nM.
With `COc1ccc2c(O[C@@H]3C[C@H]4C(=O)N[C@]5(C(=O)NS(=O)(=O)C6CC6)C[C@H]5/C=C\CC[C@@H](C)C[C@@H](C)[C@H](NC(=O)OC(C)(C)C)C(=O)N4C3)nccc2c1F` [Compound 3148, tert-butyl ((2R,6S,7R,9R,13aS,14aR,16aS,Z)-14a-((cyclopropylsulfonyl)carbamoyl)-2-((5-fluoro-6-methoxyisoquinolin-1-yl)oxy)-7,9-dimethyl-5,16-dioxo-1,2,3,5,6,7,8,9,10,11,13a,14,14a,15,16,16a-hexadecahydrocyclopropa[e]pyrrolo[1,2-a][1,4]diazacyclopentadecin-6-yl)carbamate] the EC50 [1, 3] was < 5.46 nM and the EC50 [2, 4] was < 5.46 nM.
For `CCCOc1cc2c(Cl)cccc2c(O[C@@H]2C[C@H]3C(=O)N[C@]4(C(=O)NS(=O)(=O)C5(C)CC5)C[C@H]4/C=C\CC[C@@H](C)C[C@@H](C)[C@H](NC(=O)O[C@H](C)C(F)(F)F)C(=O)N3C2)n1` [Compound 1080, (R)-1,1,1-trifluoropropan-2-yl ((2R,6S,7R,9R,13aS,14aR,16aS,Z)-2-((5-chloro-3-propoxyisoquinolin-1-yl)oxy)-7,9-dimethyl-14a-(((1-methylcyclopropyl)sulfonyl)carbamoyl)-5,16-dioxo-1,2,3,5,6,7,8,9,10,11,13a,14,14a,15,16,16a-hexadecahydrocyclopropa[e]pyrrolo[1,2-a][1,4]diazacyclopentadecin-6-yl)carbamate], the EC50 [1, 3] was < 5.46 nM and the EC50 [2, 4] was < 5.46 nM.
For `C[C@H]1CC/C=C\[C@@H]2C[C@@]2(C(=O)NS(=O)(=O)C2CC2)NC(=O)[C@@H]2C[C@@H](Oc3nc(OCC(F)F)cc4c(Cl)cccc34)CN2C(=O)[C@@H](NC(=O)OC(C)(C)C(C)(F)F)[C@H](C)C1` [Compound 1111, 3,3-difluoro-2-methylbutan-2-yl((2R,6S,7R,9S,13aS,14aR,16aS,Z)-2-((5-chloro-3-(2,2-difluoroethoxyl)isoquinolin-1-yl)oxy)-14a-((cyclopropylsulfonyl)carbamoyl)-7,9-dimethyl-5,16-dioxo-1,2,3,5,6,7,8,9,10,11,13a,14,14a,15,16,16a-hexadecahydrocyclopropa[e]pyrrolo[1,2-a][1,4]diazacyclopentadecin-6-yl)carbamate], the EC50 [1, 3] was < 5.46 nM and the EC50 [2, 4] was < 5.46 nM.
`COc1cc2ccnc(O[C@@H]3C[C@H]4C(=O)N[C@]5(C(=O)NS(=O)(=O)C6(CF)CC6)C[C@H]5/C=C\CC[C@@H](C)C[C@@H](C)[C@H](NC(=O)C(C)(C)C)C(=O)N4C3)c2cc1F` [Compound 4165, (2R,6S,7R,9R,13aS,14aR,16aS,Z)-2-(7-fluoro-6-methoxyisoquinolin-1-yloxy)-N-(1-(fluoromethyl)cyclopropylsulfonyl)-7,9-dimethyl-5,16-dioxo-6-pivalamido-1,2,3,5,6,7,8,9,10,11,13a,14,14a,15,16,16a-hexadecahydrocyclopropa[e]pyrrolo[1,2-a][1,4]diazacyclopentadecine-14a-carboxamide] was tested, and the EC50 [1, 5] was < 5.46 nM and the EC50 [2, 6] was < 5.46 nM.
In the case of `COCCOc1cc2c(Cl)cccc2c(O[C@@H]2C[C@H]3C(=O)N[C@]4(C(=O)NS(=O)(=O)C5(C)CC5)C[C@H]4/C=C\CC[C@H](C)C[C@@H](C)[C@H](NC(=O)OC(C)(C)C)C(=O)N3C2)n1` [Compound 1117, tert-butyl ((2R,6S,7R,9S,13aS,14aR,16aS,Z)-2-((5-chloro-3-(2-methoxyethoxyl)isoquinolin-1-yl)oxy)-7,9-dimethyl-14a-(((1-methylcyclopropyl)sulfonyl)carbamoyl)-5,16-dioxo-1,2,3,5,6,7,8,9,10,11,13a,14,14a,15,16,16a-hexadecahydrocyclopropa[e]pyrrolo[1,2-a][1,4]diazacyclopentadecin-6-yl)carbamate], the EC50 [1, 3] is reported as < 5.46 nM and the EC50 [2, 4] is reported as < 5.46 nM.
`CC[C@@H]1C[C@@H](C)CC/C=C\[C@@H]2C[C@@]2(C(=O)NS(=O)(=O)C2(C)CC2)NC(=O)[C@@H]2C[C@@H](Oc3nnc(OC)c4ccccc34)CN2C(=O)[C@H]1NC(=O)OC(C)(C)C(F)(F)F` [Compound 5017, 1,1,1-trifluoro-2-methylpropan-2-yl((2R,6S,7R,9S,13aS,14aR,16aS,Z)-7-ethyl-2-((4-methoxyphthalazin-1-yl)oxy)-9-methyl-14a-(((1-methylcyclopropyl)sulfonyl)carbamoyl)-5,16-dioxo-1,2,3,5,6,7,8,9,10,11,13a,14,14a,15,16,16a-hexadecahydrocyclopropa[e]pyrrolo[1,2-a][1,4]diazacyclopentadecin-6-yl)carbamate] was tested, and the EC50 [1, 5] was < 5.46 nM and the EC50 [2, 6] was 4.82 to 103 nM.
In the case of `COc1cnc(O[C@@H]2C[C@H]3C(=O)N[C@]4(C(=O)NS(=O)(=O)C5CCC5)C[C@H]4/C=C\CC[C@@H](C)C[C@@H](C)[C@H](NC(=O)OC(C)(C)C(F)(F)F)C(=O)N3C2)c2ccccc12` [Compound 5354, 1,1,1-trifluoro-2-methylpropan-2-yl((2R,6S,7R,9R,13aS,14aR,16aS,Z)-14a-((cyclobutylsulfonyl)carbamoyl)-2-((4-methoxyisoquinolin-1-yl)oxy)-7,9-dimethyl-5,16-dioxo-1,2,3,5,6,7,8,9,10,11,13a,14,14a,15,16,16a-hexadecahydrocyclopropa[e]pyrrolo[1,2-a][1,4]diazacyclopentadecin-6-yl)carbamate], the EC50 [1, 5] is reported as < 5.46 nM and the EC50 [2, 6] is reported as < 5.46 nM.
